Measurements from patent publication US20190270733A1, “Quinoline and Isoquinoline Based HDAC Inhibitors and Methods of Use Thereof” (Reaction Biology Corp., priority 2018, published 2019).
Where “and” joins values, the source holds several entries; their conditions need not be identical. Identical values can stand only once. Like-named read-outs stand apart in the source and are kept apart here.

Assay: Mouse plasma PK (IV and PO dosing)
Type: in vivo, Male C57 Bl/6J mice
Conditions: for AUC(0-inf): read-out: AUCINF—obs (converted); for MRT inf: read-out: MRTINF—obs
Procedure: In vivo PK (pharmacokinetics) studies were run at Scripps Florida DMPK Core facility. Mouse plasma PK data was obtained using the compound of Example 5 (N-(2-amino-5-(thiophen-2-yl)phenyl)-2-oxo-1,2,3,4-tetrahydroquinoline-6-carboxamide)
Dose: 1 mg/kg intravenous (IV), 7 mg/kg oral dosing (PO)
Formulation: 0.1 mg/mL (IV) and 1 mg/mL (PO) solution in 10/10/80 DMSO/Tween80/Water
Mice Info: Male C57 Bl/6J
Plasma PK were evaluated in mice after administration of compound Example 5. […] (Tmax), maximal concentration (Cmax), observed clearance (Cl_obs), mean residential time (MRT), and observed volume distribution (Vss_obs) were also quantified (Tables 2 and 3).

[1] = IV 1 mg/kg, mouse plasma, average
[2] = IV 1 mg/kg, mouse plasma, individual mice, 1 mg/kg
[3] = IV administration, mouse plasma
[4] = PO 7 mg/kg, mouse plasma, average
[5] = PO 7 mg/kg, mouse plasma, individual mice, 7 mg/kg
[6] = male, C57 Bl/6J, mouse, plasma, iv, 1 mg/kg, IV 1 mg/kg, mouse plasma, average
[7] = male, C57 Bl/6J, mouse, plasma, iv, 1 mg/kg, IV 1 mg/kg, mouse plasma, individual mice
[8] = male, C57 Bl/6J, mouse, plasma, po, 7 mg/kg, PO 7 mg/kg, mouse plasma, average
[9] = male, C57 Bl/6J, mouse, plasma, po, 7 mg/kg, PO 7 mg/kg, mouse plasma, individual mice

For Nc1ccc(-c2cccs2)cc1NC(=O)c1ccc2c(c1)CCC(=O)N2 [Example 5, N-(2-amino-5-(thiophen-2-yl)phenyl)-2-oxo-1,2,3,4-tetrahydroquinoline-6-carboxamide], the “AUC (% Extrap)” value [1] was 1.42%, the Cl_obs [1] was 5.33 mL/min/kg and the Vss_obs [1] was 0.40 L/kg. For the same molecule, the “AUC (% Extrap)” value [2] was 1.31% and 1.23% and 1.71%, the “AUCINF—obs” value [2] was 184402 ng·min/mL and 207009 ng·min/mL and the AUClast [2] was 8.36 μM · hr and 9.34 μM · hr and 182140 min * ng/mL and 203467 min * ng/mL. For the same molecule, the Cl_obs [2] was 5.75 mL/min/kg and 5.42 mL/min/kg and 4.83 mL/min/kg, the Cmax [2] was 2480 ng/mL and 4540 ng/mL and 5820 ng/mL and the “MRTINF—obs” value [2] was 1.19 h and 1.14 h. The T1/2 [2] was 1.52 h and 1.59 h, the Tmax [2] was 0.08 hr (2×) and 0.25 hr and the Vss_obs [2] was 0.48 L/kg and 0.39 L/kg and 0.33 L/kg. The Cmax (IV 1 mg/kg, mouse plasma, individual mice, 1 mg/kg, read-out: Cmax) was 6.83 µM and 12.5 µM and 16 µM, the “clearance (in words)” value [3] was “low clearance” and the “volume (in words)” value [3] was “low volume”. For the same molecule, the “AUC (% Extrap)” value [4] was 9.95%, the Cl_obs [4] was 25.89 mL/min/kg and the “AUC (% Extrap)” value [5] was 6.21% and 14.68% and 8.96%. For the same molecule, the “AUCINF—obs” value [5] was 227793 ng·min/mL and 250553 ng·min/mL, the AUClast [5] was 8.92 μM · hr and 10.47 μM · hr and 194363 min * ng/mL and 228113 min * ng/mL and the Cl_obs [5] was 18.99 mL/min/kg and 30.73 mL/min/kg and 27.94 mL/min/kg. For the same molecule, the Cmax [5] was 1590 ng/mL and 1620 ng/mL, the T1/2 [5] was 3.30 h and 2.62 h and the Tmax [5] was 1.00 hr and 0.25 hr (2×). The Cmax (PO 7 mg/kg, mouse plasma, individual mice, 7 mg/kg, read-out: Cmax) was 4.38 µM and 4.46 µM, the AUC (male, C57 Bl/6J, 1 mg/kg, IV administration, mouse plasma, read-out: AUC) was 8.5 µM·h and the AUC (male, C57 Bl/6J, 7 mg/kg, PO dosing, mouse plasma, read-out: AUC (area under the curve)) was 11 to 12 µM·h. For the same molecule, the AUC(0-t) [6] was 8.53 µM·h and 3100 ng·h/mL, the AUC(0-inf) [6] was 3140 ng·h/mL and the Cmax (male, C57 Bl/6J, mouse, plasma, iv, 1 mg/kg, IV 1 mg/kg, mouse plasma, average, read-out: Cmax) was 4280 ng/mL and 11.8 µM. The MRT inf [6] was 1.24 h, the half-life (male, C57 Bl/6J, mouse, plasma, iv, 1 mg/kg, IV 1 mg/kg, mouse plasma, average, read-out: T1/2 (converted)) was 1.48 h and the Tmax (male, C57 Bl/6J, mouse, plasma, iv, 1 mg/kg, IV 1 mg/kg, mouse plasma, average, read-out: Tmax) was 0.14 h. The AUC(0-t) [7] was 7.88 µM·h and 2860 ng·h/mL, the AUC(0-inf) [7] was 2900 ng·h/mL and the MRT inf [7] was 1.39 h. The half-life (male, C57 Bl/6J, mouse, plasma, iv, 1 mg/kg, IV 1 mg/kg, mouse plasma, individual mice, read-out: T1/2 (converted)) was 1.34 h, the half-life (male, C57 Bl/6J, mouse, plasma, iv, 1 mg/kg, IV administration, mouse plasma, read-out: half-life (T1/2) (converted)) was 1.5 h and the AUC(0-t) [8] was 11.8 µM·h and 4270 ng·h/mL. For the same molecule, the AUC(0-inf) [8] was 4710 ng·h/mL, the Cmax (male, C57 Bl/6J, mouse, plasma, po, 7 mg/kg, PO 7 mg/kg, mouse plasma, average, read-out: Cmax) was 1960 ng/mL and 5.4 µM and the half-life (male, C57 Bl/6J, mouse, plasma, po, 7 mg/kg, PO 7 mg/kg, mouse plasma, average, read-out: T1/2 (converted)) was 2.66 h. The Tmax (male, C57 Bl/6J, mouse, plasma, po, 7 mg/kg, PO 7 mg/kg, mouse plasma, average, read-out: Tmax) was 0.5 h, the AUC(0-t) [9] was 15.9 µM·h and 5760 ng·h/mL and the AUC(0-inf) [9] was 6140 ng·h/mL. For the same molecule, the Cmax (male, C57 Bl/6J, mouse, plasma, po, 7 mg/kg, PO 7 mg/kg, mouse plasma, individual mice, read-out: Cmax) was 2670 ng/mL and 7.36 µM, the half-life (male, C57 Bl/6J, mouse, plasma, po, 7 mg/kg, PO 7 mg/kg, mouse plasma, individual mice, read-out: T1/2 (converted)) was 2.05 h and the half-life (male, C57 Bl/6J, mouse, plasma, po, 7 mg/kg, PO dosing, mouse plasma, read-out: half-life (converted)) was 2.7 h. It also gave a bioavailability (male, C57 Bl/6J, plasma, PO 7 mg/kg vs IV 1 mg/kg, mouse, read-out: % F (bioavailability)) of 20%.
